Experiments:
[1] = Thermal stability of sodium ferrate(VI) (temperature limit); assay type: physicochemical
Description: The ferrate fiber of the present invention can disperse the ferrate formulation mentioned above into one or more suitable polymers to produce the ferrate fiber. Broadly, a formulation of the ferrate is mixed/blended with at least one nonaqueous polymer, and then the mixture can be dispersed and cooled to solidify into the fiber of the present invention. The nonaqueous polymer is defined above. A conventional extrusion method can be used to co-extrude/disperse the ferrate/polymer mixture. Preferably, the polymer is in a liquid form before blending with the ferrate formulation. The polymer can be melted into a liquid polymer before blending. The ferrate is highly oxidative so it is normally not placed in contact with any high temperature organic polymer, nor is it co-extruded/dispersed with other polymers under a relatively high temperature using a conventional extrusion method. Such blending and co-extrusion might decompose the ferrate prematurely. […] Most suitable polymers can melt at a much lower temperature. Therefore, the ferrate(VI) can be blended and then co-extruded/dispersed with one or more melted liquid polymers without causing the ferrate to decompose prematurely even using a relatively vigorous conventional extrusion method.

[2] = Thermal storage stability under Army Regulation (AR) 70-38 test conditions; assay type: physicochemical
Method: Unexpectedly, unlike all peroxide materials, we found potassium ferrate(VI) to be thermally stable as defined by Army Regulation (AR) 70-38 test conditions. Therefore potassium ferrate(VI) was determined to be stable to storage for long periods, at least 98 days at 71° C., and at least 82 days under conditions of cycling daily from 23° C. to 71° C. and back again. […] In these tests, losses with time varied slightly with test vials ranging from <1% to 10% (±3%) loss respectively after the test periods given.

Row | Molecule | stable up to (temperature) [1] | stable to storage (time) ([2]; at 71° C., pure (80-100% analytical grade) or moderate purity (50-80% technical grade)) | stable to storage (time) ([2]; cycling daily from 23° C. to 71° C. and back again, pure or technical grade) | estimated storage stability ([2]; estimated from the AR 70-38 results)
1 | [Na+].[Na+].[O]=[Fe](=[O])([O-])[O-] [sodium ferrate(VI)] | up to 270 °C |  |  | 
2 | potassium ferrate(VI) |  | at least 98 days | at least 82 days | sufficiently stable for several years of storage

Source: patent US20130034594A1, “FIBERS CONTAINING FERRATES AND METHODS” (BATTELLE MEMORIAL INSTITUTE, priority 2010, published 2013)
